Drawing on ChEMBL document CHEMBL6182866, “Design, synthesis, molecular docking and ADME of novel phenylalanine derivatives as mushroom tyrosinase inhibitors” (Bioorg Med Chem Lett, 2025), this text covers IC50 and inhibition for 22 compounds.

One experiment addresses Mushroom tyrosinase (Agaricus bisporus, UniProt O42713+Q00024+C7FF04+C7FF05). Put plainly: Inhibition of mushroom tyrosinase using L-DOPA as substrate assessed as reduction in diphenolase activity. Type of experiment: protein assay.
For experiment [1], the target named is T1, Mushroom tyrosinase (Agaricus bisporus) (UniProt O42713+Q00024+C7FF04+C7FF05). Put plainly: Reversible inhibition of mushroom tyrosinase using L-DOPA as substrate up to 10 uM. Type of experiment: protein assay.
The target of experiment [2] is T2, Tyrosinase (Homo sapiens) (UniProt P14679).
T2 sequence (whole entry): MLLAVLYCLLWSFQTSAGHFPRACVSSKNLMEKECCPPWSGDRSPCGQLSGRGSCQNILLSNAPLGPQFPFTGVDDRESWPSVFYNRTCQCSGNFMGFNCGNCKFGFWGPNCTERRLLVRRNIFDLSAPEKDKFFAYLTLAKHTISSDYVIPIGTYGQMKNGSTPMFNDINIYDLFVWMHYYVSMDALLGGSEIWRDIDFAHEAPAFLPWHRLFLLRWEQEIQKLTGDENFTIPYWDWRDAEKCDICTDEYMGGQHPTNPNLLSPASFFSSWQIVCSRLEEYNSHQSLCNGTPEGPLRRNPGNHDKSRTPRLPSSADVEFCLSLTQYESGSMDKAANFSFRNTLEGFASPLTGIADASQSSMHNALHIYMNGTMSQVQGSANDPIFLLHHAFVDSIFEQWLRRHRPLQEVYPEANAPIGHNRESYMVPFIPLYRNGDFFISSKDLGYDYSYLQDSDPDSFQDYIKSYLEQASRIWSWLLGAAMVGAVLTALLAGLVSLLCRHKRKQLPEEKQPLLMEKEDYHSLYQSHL
Put plainly: Inhibition of human TYR using L-DOPA as substrate assessed as reduction in diphenolase activity by absorbance based assay.

The target of experiment [3] is T1, Mushroom tyrosinase (Agaricus bisporus). As to the kind of experiment: Competitive inhibition of mushroom tyrosinase using L-DOPA as substrate assessed as increase in Km with constant Vmax up to 10 uM by Lineweaver-Burk plot analysis. Type of experiment: protein assay.

Calls of active or inactive are those of the source. The rule behind the calls is not given here.

A word on the IC50: it is the midpoint of a concentration-inhibition curve. Turning to `O=C(OCc1ccc([N+](=O)[O-])cc1)C(Cc1ccccc1)NCc1ccc(Br)cc1` (configuration not stated), the IC50 on Mushroom tyrosinase was 11.95 µM.

Take `O=C(OCc1cc(=O)c(O)co1)C(Cc1ccccc1)NCc1ccc(Cl)c([N+](=O)[O-])c1` (configuration not stated): the IC50 on Mushroom tyrosinase is 11.65 µM.

Take `O=C(O)C(Cc1ccccc1)NCc1ccc([N+](=O)[O-])cc1` (configuration not stated): on Mushroom tyrosinase, the half-inhibitory concentration (IC50) came out at 42.4 µM.

`O=C(OCc1ccc([N+](=O)[O-])cc1)C(Cc1ccccc1)NCc1ccc(Cl)c([N+](=O)[O-])c1` (configuration not stated): the inhibition entry in experiment [1] and in experiment [3] was “Active” throughout. For the same compound, at Mushroom tyrosinase, the IC50 was determined as 4.86 µM. In addition, the inhibition entry in experiment [2] is “Dose-dependent-effect”.

On to `O=C(OCc1ccc([N+](=O)[O-])cc1)C(Cc1ccccc1)NCc1ccc(Cl)cc1Cl` (configuration not stated), for which the IC50 on Mushroom tyrosinase was found to be 6.78 µM.

As to `O=C(O)C(Cc1ccccc1)NCc1ccc(Cl)cc1Cl` (configuration not stated), the IC50 on Mushroom tyrosinase is > 100 µM.

In the case of `O=C(O)C(Cc1ccccc1)NCc1ccc(Cl)c([N+](=O)[O-])c1` (configuration not stated), the 50% inhibitory concentration (IC50) at Mushroom tyrosinase was > 100 µM.

As to `O=C(OCc1ccc(F)cc1)C(Cc1ccccc1)NCc1ccc(Cl)c([N+](=O)[O-])c1` (configuration not stated), the IC50 on Mushroom tyrosinase is 6.11 µM.

As for `O=C(OCc1ccc([N+](=O)[O-])cc1)C(Cc1ccccc1)NCc1ccccc1Cl` (configuration not stated), at Mushroom tyrosinase, the IC50 stood at 16.99 µM.

Consider `O=C(OCc1cc(=O)c(O)co1)C(Cc1ccccc1)NCc1ccc([N+](=O)[O-])cc1` (configuration not stated), for which, at Mushroom tyrosinase, the IC50 stood at 13.43 µM.

As for `O=C(OCc1cc(=O)c(O)co1)C(Cc1ccccc1)NCc1ccc(Cl)cc1Cl` (configuration not stated), the inhibition entry in experiment [1] and in experiment [3] was “Active” in each case. Further, at Mushroom tyrosinase, the IC50 turned out to be 10.35 µM.

Turning to `CC(C)C(=O)Nc1nc(-c2ccc(O)cc2O)cs1`, at Mushroom tyrosinase, the IC50 worked out at 48.12 µM.

For `O=C(OCc1ccc(F)cc1)C(Cc1ccccc1)NCc1ccc(Br)cc1` (configuration not stated), the IC50 at Mushroom tyrosinase was found to be 16.07 µM.

With `O=C(O)C(Cc1ccccc1)NCc1ccc(Br)cc1` (configuration not stated), the IC50 at Mushroom tyrosinase worked out at 31.05 µM.

For the compound `O=C(O)C(Cc1ccccc1)NCc1ccccc1Cl` (configuration not stated), the IC50 at Mushroom tyrosinase was > 100 µM.

Turning to `O=C(OCc1ccc([N+](=O)[O-])cc1)C(Cc1ccccc1)NCc1ccc([N+](=O)[O-])cc1` (configuration not stated), on Mushroom tyrosinase, the IC50 amounted to 10.58 µM.

For `O=c1cc(CCl)occ1O`, the IC50 on Mushroom tyrosinase was 33.05 µM.

On to `O=C(OCc1ccc(F)cc1)C(Cc1ccccc1)NCc1ccc([N+](=O)[O-])cc1` (configuration not stated), for which, on Mushroom tyrosinase, the IC50 came to 11.77 µM.

For the compound `O=C(OCc1ccc(F)cc1)C(Cc1ccccc1)NCc1ccc(Cl)cc1Cl` (configuration not stated), on Mushroom tyrosinase, the IC50 was determined as 8.33 µM.

Turning to `O=C(OCc1cc(=O)c(O)co1)C(Cc1ccccc1)NCc1ccccc1Cl` (configuration not stated), on Mushroom tyrosinase, the IC50 stood at 20.64 µM.

For `O=C(OCc1cc(=O)c(O)co1)C(Cc1ccccc1)NCc1ccc(Br)cc1` (configuration not stated), the IC50 at Mushroom tyrosinase amounted to 15.26 µM.

Consider `O=C(OCc1ccc(F)cc1)C(Cc1ccccc1)NCc1ccccc1Cl` (configuration not stated), for which the IC50 on Mushroom tyrosinase was found to be 18.2 µM.
